PubChem BioAssay (NCI)
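Results reflect a 48-hour exposure of cells in 96-well plates to compound at five concentrations. Abbreviation: GI50, concentration required for 50% inhibition of growth. TGI marks complete inhibition of growth.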

Legend:
Assay in all cases: NCI anticancer screen, dose series, 48 h
[1] = system: 786-0 renal
[2] = system: A498 renal
[3] = system: A549 NSCLC
[4] = system: ACHN renal
[5] = system: BT-549 breast
[6] = system: CAKI-1 renal
[7] = system: CCRF-CEM leukemia
[8] = system: COLO 205 colon
[9] = system: DU-145 prostate
[10] = system: EKVX NSCLC
[11] = system: HCC-2998 colon
[12] = system: HCT-116 colon
[13] = system: HCT-15 colon
[14] = system: HL-60(TB) leukemia
[15] = system: HOP-62 NSCLC
[16] = system: HS 578T breast
[17] = system: HT29 colon
[18] = system: IGROV1 ovarian
[19] = system: K-562 leukemia
[20] = system: KM12 colon
[21] = system: LOX IMVI melanoma
[22] = system: M14 melanoma
[23] = system: MALME-3M melanoma
[24] = system: MCF7 breast
[25] = system: MDA-MB-231 breast
[26] = system: MDA-MB-435
[27] = system: MOLT-4 leukemia
[28] = system: NCI-H226 lung
[29] = system: NCI-H23 lung
[30] = system: NCI-H460 lung
[31] = system: NCI-H522 lung
[32] = system: NCI/ADR-RES ovarian
[33] = system: OVCAR-3 ovarian
[34] = system: OVCAR-4 ovarian
[35] = system: OVCAR-5 ovarian
[36] = system: OVCAR-8 ovarian
[37] = system: PC-3 prostate
[38] = system: RPMI-8226 leukemia
[39] = system: RXF 393 renal
[40] = system: SF-268 CNS
[41] = system: SF-295 CNS
[42] = system: SF-539 CNS
[43] = system: SK-MEL-2 melanoma
[44] = system: SK-MEL-28 melanoma
[45] = system: SK-MEL-5 melanoma
[46] = system: SK-OV-3 ovarian
[47] = system: SN12C renal
[48] = system: SNB-19 CNS
[49] = system: SNB-75 CNS
[50] = system: SR leukemia
[51] = system: SW-620 colon
[52] = system: T-47D breast
[53] = system: TK-10 renal
[54] = system: U251 CNS
[55] = system: UACC-257 melanoma
[56] = system: UACC-62 melanoma
[57] = system: UO-31 renal

Q: How did the GI50 [1] turn out when `CC/C=C\C[C@H](F)C/C=C1/C(=O)C=C[C@@H]1C/C=C\CCCC(=O)OC` was run?
A: The GI50 was 2.56 µM.

Q: And the TGI [1]?
A: The TGI was 9.55 µM.

Q: And the GI50 [2]?
A: Its GI50 is 9.41 µM.

Q: What about the TGI [2] of the same compound?
A: The TGI was 17.2 µM.

Q: What about the GI50 [3] of the same compound?
A: Its GI50 is 1.99 µM.

Q: And the TGI [3]?
A: The TGI was 10.5 µM.

Q: And the GI50 [4]?
A: Its GI50 is 2.46 µM.

Q: What about the TGI [4] of the same compound?
A: The TGI was 9.07 µM.

Q: And the GI50 [5]?
A: Its GI50 is 1.5 µM.

Q: And the TGI [5]?
A: Its TGI is 4.15 µM.

Q: And the GI50 [6]?
A: The GI50 was 1.87 µM.

Q: And the TGI [6]?
A: Its TGI is 6.82 µM.

Q: What about the GI50 [7] of the same compound?
A: Its GI50 is 1.38 µM.

Q: What about the TGI [7] of the same compound?
A: The TGI was 5.75 µM.

Q: And the GI50 [8]?
A: The GI50 was 1.22 µM.

Q: What about the TGI [8] of the same compound?
A: Its TGI is 2.72 µM.

Q: And the GI50 [9]?
A: The GI50 was 3.17 µM.

Q: And the TGI [9]?
A: The TGI was 9.81 µM.

Q: And the GI50 [10]?
A: Its GI50 is 5.17 µM.

Q: And the TGI [10]?
A: The TGI was 12 µM.

Q: What about the GI50 [11] of the same compound?
A: Its GI50 is 4.1 µM.

Q: What about the TGI [11] of the same compound?
A: Its TGI is 10.6 µM.

Q: What about the GI50 [12] of the same compound?
A: The GI50 was 0.88 µM.

Q: What about the TGI [12] of the same compound?
A: The TGI was 1.79 µM.

Q: And the GI50 [13]?
A: The GI50 was 1.19 µM.

Q: What about the TGI [13] of the same compound?
A: The TGI was 4.42 µM.

Q: And the GI50 [14]?
A: Its GI50 is 1.52 µM.

Q: What about the TGI [14] of the same compound?
A: Its TGI is 6.29 µM.

Q: And the GI50 [15]?
A: The GI50 was 1.45 µM.

Q: And the TGI [15]?
A: Its TGI is 3.45 µM.

Q: And the GI50 [16]?
A: Its GI50 is 3.51 µM.

Q: And the TGI [16]?
A: Its TGI is 21 µM.

Q: What about the GI50 [17] of the same compound?
A: The GI50 was 1.69 µM.

Q: And the TGI [17]?
A: The TGI was 4.67 µM.

Q: And the GI50 [18]?
A: The GI50 was 1.94 µM.

Q: And the TGI [18]?
A: Its TGI is 8.58 µM.

Q: And the GI50 [19]?
A: The GI50 was 1.49 µM.

Q: And the TGI [19]?
A: The TGI was 6.19 µM.

Q: And the GI50 [20]?
A: Its GI50 is 1.26 µM.

Q: And the TGI [20]?
A: Its TGI is 3.43 µM.

Q: What about the GI50 [21] of the same compound?
A: Its GI50 is 0.854 µM.

Q: And the TGI [21]?
A: Its TGI is 1.75 µM.

Q: And the GI50 [22]?
A: The GI50 was 1.65 µM.

Q: And the TGI [22]?
A: Its TGI is 5.8 µM.

Q: And the GI50 [23]?
A: Its GI50 is 2.03 µM.

Q: What about the TGI [23] of the same compound?
A: The TGI was 8.7 µM.

Q: What about the GI50 [24] of the same compound?
A: Its GI50 is 1.02 µM.

Q: What about the TGI [24] of the same compound?
A: The TGI was 7.05 µM.

Q: And the GI50 [25]?
A: The GI50 was 1.91 µM.

Q: And the TGI [25]?
A: The TGI was 6.7 µM.

Q: And the GI50 [26]?
A: The GI50 was 1.25 µM.

Q: What about the TGI [26] of the same compound?
A: The TGI was 3.37 µM.

Q: And the GI50 [27]?
A: Its GI50 is 1.45 µM.

Q: And the TGI [27]?
A: The TGI was 5.27 µM.

Q: What about the GI50 [28] of the same compound?
A: Its GI50 is 22.2 µM.

Q: And the TGI [28]?
A: Its TGI is 44.6 µM.

Q: And the GI50 [29]?
A: The GI50 was 2.16 µM.

Q: And the TGI [29]?
A: Its TGI is 10.9 µM.

Q: What about the GI50 [30] of the same compound?
A: The GI50 was 1.44 µM.

Q: And the TGI [30]?
A: Its TGI is 4.11 µM.

Q: And the GI50 [31]?
A: Its GI50 is 1.32 µM.

Q: And the TGI [31]?
A: The TGI was 5.08 µM.

Q: What about the GI50 [32] of the same compound?
A: Its GI50 is 1.71 µM.

Q: What about the TGI [32] of the same compound?
A: Its TGI is 35 µM.

Q: What about the GI50 [33] of the same compound?
A: The GI50 was 2.05 µM.

Q: What about the TGI [33] of the same compound?
A: Its TGI is 6.9 µM.

Q: And the GI50 [34]?
A: The GI50 was 3.35 µM.

Q: What about the TGI [34] of the same compound?
A: Its TGI is 10.1 µM.

Q: What about the GI50 [35] of the same compound?
A: Its GI50 is 3.35 µM.

Q: What about the TGI [35] of the same compound?
A: Its TGI is 12.4 µM.

Q: And the GI50 [36]?
A: The GI50 was 2.05 µM.

Q: What about the TGI [36] of the same compound?
A: The TGI was 12.2 µM.

Q: And the GI50 [37]?
A: The GI50 was 1.74 µM.

Q: And the TGI [37]?
A: The TGI was 5.7 µM.

Q: And the GI50 [38]?
A: Its GI50 is 1.39 µM.

Q: What about the TGI [38] of the same compound?
A: The TGI was 5.49 µM.

Q: And the GI50 [39]?
A: Its GI50 is 6.95 µM.

Q: What about the TGI [39] of the same compound?
A: The TGI was 14.3 µM.

Q: And the GI50 [40]?
A: The GI50 was 1.86 µM.

Q: And the TGI [40]?
A: Its TGI is 7.23 µM.

Q: What about the GI50 [41] of the same compound?
A: Its GI50 is 2.24 µM.

Q: What about the TGI [41] of the same compound?
A: Its TGI is 8.3 µM.

Q: What about the GI50 [42] of the same compound?
A: Its GI50 is 4.26 µM.

Q: And the TGI [42]?
A: The TGI was 11.2 µM.

Q: What about the GI50 [43] of the same compound?
A: Its GI50 is 4.88 µM.

Q: And the TGI [43]?
A: The TGI was 13 µM.

Q: What about the GI50 [44] of the same compound?
A: Its GI50 is 1.52 µM.

Q: What about the TGI [44] of the same compound?
A: The TGI was 4.94 µM.

Q: And the GI50 [45]?
A: Its GI50 is 1.29 µM.

Q: And the TGI [45]?
A: The TGI was 3.13 µM.

Q: And the GI50 [46]?
A: The GI50 was 10.5 µM.

Q: What about the TGI [46] of the same compound?
A: The TGI was 32.1 µM.

Q: What about the GI50 [47] of the same compound?
A: The GI50 was 1.25 µM.

Q: And the TGI [47]?
A: The TGI was 3.24 µM.

Q: And the GI50 [48]?
A: Its GI50 is 2.35 µM.

Q: What about the TGI [48] of the same compound?
A: The TGI was 9.23 µM.

Q: And the GI50 [49]?
A: The GI50 was 5.64 µM.

Q: And the TGI [49]?
A: The TGI was 11.7 µM.

Q: What about the GI50 [50] of the same compound?
A: The GI50 was 1.06 µM.

Q: What about the TGI [50] of the same compound?
A: The TGI was 3.42 µM.

Q: What about the GI50 [51] of the same compound?
A: Its GI50 is 1.62 µM.

Q: What about the TGI [51] of the same compound?
A: Its TGI is 4.73 µM.

Q: What about the GI50 [52] of the same compound?
A: Its GI50 is 1.42 µM.

Q: What about the TGI [52] of the same compound?
A: Its TGI is 5.57 µM.

Q: And the GI50 [53]?
A: Its GI50 is 7.09 µM.

Q: And the TGI [53]?
A: The TGI was 16.2 µM.

Q: What about the GI50 [54] of the same compound?
A: The GI50 was 1.86 µM.

Q: What about the TGI [54] of the same compound?
A: Its TGI is 6.57 µM.

Q: What about the GI50 [55] of the same compound?
A: The GI50 was 2.75 µM.

Q: What about the TGI [55] of the same compound?
A: The TGI was 10.1 µM.

Q: What about the GI50 [56] of the same compound?
A: Its GI50 is 0.948 µM.

Q: And the TGI [56]?
A: The TGI was 2.1 µM.

Q: What about the GI50 [57] of the same compound?
A: The GI50 was 2.13 µM.

Q: And the TGI [57]?
A: Its TGI is 9.72 µM.
